From patent publication US4173539A, “Cationic surfactant compositions” (Lever Brothers Company, priority 1977, dated 1979)
“And” between values parts separate entries of the source, which are not always exact repeats. Identical values can stand only once.

Key:
[1] = Krafft point (Kp) determination; format: physicochemical; conditions: aqueous dispersion containing 2% by weight, temperature at which it becomes cloudy on cooling
Experimental: A composition of uniform turbidity can be recognised simply by visual observation of a sample which has been placed in a test tube and allowed to stand for 24 hours at ambient temperature. […] The melting point of particles of softening agent can be determined by placing in a hot stage microscope a sample of composition on a glass slide covered by a glass cover slip and observing the temperature at which melting of the particle occurs as a change in shape of the particles indicating deformation of liquid droplets when the cover slip is moved over the slide. The Krafft point (Kp) of the quaternary ammonium chloride can be determined by heating an aqueous dispersion containing 2% by weight of it to a temperature at which a transparent solution is obtained, cooling it, and observing the temperature at which it becomes cloudy. The clear point of the composition can be determined by heating a sample to 95° C.: lack of optical clarity at this temperature is taken as showing that the clear point is above 95° C.

[2] = Effective normality ratio range of quaternary ammonium salt to anionic surfactant for stable dispersions; format: physicochemical
Text: The ranges of figures in the table are the ranges of normality ratios expressed as quaternary ammonium salt to 1 of anionic surfactant.
There is no specific disclosure of the preparation of aqueous liquid concentrates in these prior publications of stable dispersions containing positively charged particles of quaternary ammonium softeners with single long-chain groups, and to prepare these it is necessary both to select a normality ratio within the operative range for the particular quaternary ammonium salt and anionic surfactant concerned and to employ a method of formulation which gives a homogeneous liquid phase before generating the complex-containing softener particles.

| Krafft point (Kp) [1] | effective normality ratio range, quaternary ammonium salt to 1 of anionic surfactant ([2]; anionic surfactant: Sodium stearate) | Krafft point (Kp) ([1]; listed as behenoyl-hydroxypropyltrimethylammonium chloride of Preparation I) [°C] | Compound | effective normality ratio range, quaternary ammonium salt to 1 of anionic surfactant ([2]; anionic surfactant: Sodium C15-C18 olefin sulphonate) | effective normality ratio range, quaternary ammonium salt to 1 of anionic surfactant ([2]; anionic surfactant: Sodium linear C10-C15 alkylbenzene sulphonate) | effective normality ratio range, quaternary ammonium salt to 1 of anionic surfactant ([2]; anionic surfactant: Sodium random secondary C13-C17 alkane sulphonate) | effective normality ratio range, quaternary ammonium salt to 1 of anionic surfactant ([2]; anionic surfactant: Sodium soap of tallow fatty acids) |
| --- | --- | --- | --- | --- | --- | --- | --- |
| 16 °C | – | – | CCCCCCCCCCCCCCCC[N+](C)(C)Cc1ccccc1.[Cl-] [cetylbenzyldimethylammonium chloride] | – | – | – | – |
| 60 °C | – | – | CCCCCCCCCCCCCCCCCCCCCC(=O)NCCC[N+](C)(C)C.[Cl-] [behenoylaminopropyl trimethylammonium chloride] | – | – | – | – |
| 54 °C and 58 °C | 1.2-3.0 | 58 | CCCCCCCCCCCCCCCCCCCCCC(=O)OCC(O)C[N+](C)(C)C.[Cl-] (stereo not shown) [3-behenoyloxy-2-hydroxypropyl trimethylammonium chloride] | – | – | – | – |

| Compound | Krafft point (Kp) [1] | effective normality ratio range, quaternary ammonium salt to 1 of anionic surfactant ([2]; anionic surfactant: Sodium stearate) | Krafft point (Kp) ([1]; listed as behenoyl-hydroxypropyltrimethylammonium chloride of Preparation I) [°C] | effective normality ratio range, quaternary ammonium salt to 1 of anionic surfactant ([2]; anionic surfactant: Sodium C15-C18 olefin sulphonate) | effective normality ratio range, quaternary ammonium salt to 1 of anionic surfactant ([2]; anionic surfactant: Sodium linear C10-C15 alkylbenzene sulphonate) | effective normality ratio range, quaternary ammonium salt to 1 of anionic surfactant ([2]; anionic surfactant: Sodium random secondary C13-C17 alkane sulphonate) | effective normality ratio range, quaternary ammonium salt to 1 of anionic surfactant ([2]; anionic surfactant: Sodium soap of tallow fatty acids) |
| --- | --- | --- | --- | --- | --- | --- | --- |
| CCCCCCCCCCCCCCCCCC[N+](C)(C)C.[Cl-] [stearyltrimethylammonium chloride] | 11 °C | – | – | 1.4-1.8 | 1.5-3.0 | 1.3-2.0 | 1.1-1.6 |
